Experimental data reported in patent publication US20240182453A1, “NOVEL SUBSTITUTED PYRAZINE-CARBOXAMIDE DERIVATIVES” (Boehringer Ingelheim International GmbH, priority 2022, published 2024).

The compounds below were run against human metabotropic Glutamate 4 receptor (mGluR4) (Homo sapiens (Human), UniProt Q14833) (assay: Assay A: in vitro testing of mGluR4 potency (glutamate-induced cAMP lowering, HTRF cAMP)). Conditions: HEK293 cells overexpressing human mGluR4; 10 uM L-glutamic acid, 1 uM forskolin; compounds of the present invention.
Chain of human metabotropic Glutamate 4 receptor (mGluR4) (Q14833 33-912): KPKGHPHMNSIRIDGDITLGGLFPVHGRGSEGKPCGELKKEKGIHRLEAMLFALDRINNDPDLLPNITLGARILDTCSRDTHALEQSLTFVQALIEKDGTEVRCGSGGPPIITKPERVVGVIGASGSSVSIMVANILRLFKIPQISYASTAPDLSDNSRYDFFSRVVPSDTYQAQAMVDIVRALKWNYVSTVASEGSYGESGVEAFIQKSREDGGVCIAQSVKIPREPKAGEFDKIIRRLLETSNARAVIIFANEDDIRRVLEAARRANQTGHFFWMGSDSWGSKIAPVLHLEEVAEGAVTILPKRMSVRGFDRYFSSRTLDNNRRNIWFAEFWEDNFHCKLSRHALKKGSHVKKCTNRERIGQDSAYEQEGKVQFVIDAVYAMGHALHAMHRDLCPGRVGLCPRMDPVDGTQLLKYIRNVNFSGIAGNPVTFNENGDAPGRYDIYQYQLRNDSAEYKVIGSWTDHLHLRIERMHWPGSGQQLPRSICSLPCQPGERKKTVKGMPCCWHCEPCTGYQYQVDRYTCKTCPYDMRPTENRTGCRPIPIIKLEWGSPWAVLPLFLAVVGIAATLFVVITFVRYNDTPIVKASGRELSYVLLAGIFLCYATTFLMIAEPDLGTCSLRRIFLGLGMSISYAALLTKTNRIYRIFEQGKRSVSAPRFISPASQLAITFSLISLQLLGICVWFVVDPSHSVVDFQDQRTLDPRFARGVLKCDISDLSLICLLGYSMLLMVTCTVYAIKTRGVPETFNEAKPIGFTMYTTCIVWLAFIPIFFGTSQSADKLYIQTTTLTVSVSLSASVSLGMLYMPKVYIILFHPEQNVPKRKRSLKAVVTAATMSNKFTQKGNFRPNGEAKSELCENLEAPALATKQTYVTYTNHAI
Assay type: cell-based
Description: A. In Vitro Testing of mGluR4 Potency
The in vitro activity of the compounds according to the invention may be investigated as follows:
The HEK293 cell overexpressing the human metabotropic Glutamate 4 receptor are thawed at 37° C. and immediately diluted with cell culture medium. After centrifugation, the cell pellet is re-suspended in medium and then distributed from a stirred spinner flask into the wells of the assay plate. The plates are incubated for one hour at room temperature before they are incubated for 24 hours at 37° C./5% CO2. After washing the cells in the plate three times with 80 uL HBSS/HEPES buffer (10 uL buffer remained in the wells after washing), 5 uL per well of compounds diluted in HBSS/HEPES buffer containing 0.2% BSA (final concentration: 0.1%) and 1 mM IBMX (final concentration: 0.5 mM) are added to the wells of the assay plate. Thereafter 5 uL per well of L-Glutamic acid (final concentration: 10 uM), forskolin (final concentration: 1 uM) and 1 mM IBMX (final concentration: 0.5 mM) dissolved in HBSS/HEPES buffer containing 0.2% BSA (final concentration: 0.1%) are added to the assay plate (final DMSO concentration: 1%). Several wells of the assay plate are used either for the positive and the negative controls or for the cAMP standard curve. The assay plate is incubated for 30 minutes at room temperature. Then 5 ul per well of Anti-cAMP-Antibody-d2 solution and 5 ul per well of cAMP-Europium Cryptate dilution are added to all wells of the plate and the plate is incubated another 60 minutes light protected at room temperature. The emission at 615 nm and 665 nm (Excitation wavelength: 320 nm) are measured on the EnVision™ reader (Perkin Elmer). The ratio between the emission at 665 nm and 615 is calculated by the reader. The whole assay is performed in the dark or under green light.
The cAMP standard is prepared by diluting the cAMP stock solution with HBSS/Hepes buffer: 5 μl/well of the cAMP dilutions (in HBSS/Hepes buffer containing 1 mM IBMX and 0.2% BSA—final concentration: 0.5 mM IBMX and 0.1% BSA) are added to 10 ul/well HBSS/Hepes buffer plus 5 ul/well 4% DMSO in HBSS/Hepes containing 0.2% BSA (final DMSO concentration: 1%—like in the wells containing compounds) in the wells of the assay plate. The final cAMP concentrations in the assay plate are: 0, 0.17, 0.69, 2.78, 11.1, 44.5, 178, and 712 nM (two wells/cAMP concentration).
Each assay microtiter plate contained also wells with vehicle controls instead of compound as controls for L-Glutamic acid induced signal (negative control; 100% CTL; 10 uM L-Glutamic acid+1 uM forskolin+0.5 mM IBMX+1% DMSO) and wells with vehicle controls without L-Glutamic acid as controls for non-specific changes in signal (positive control; 0% CTL; 0 uM L-Glutamic acid+1 uM forskolin+0.5 mM IBMX+1% DMSO).
The analysis of the data is performed by the calculation the ratio between the emission at 665 nm and the emission at 615 nm (Em665/Em615 ratio). Thereafter the signals of the compounds are normalized using the positive and negative controls by the following formula:
PoC=100×((Signal Sample−Positive Control)/(Negative Control−Positive Control))

SMILES	IC50 [nM]
CCn1c(C(NC(=O)c2cnc(C)cn2)C2CCOC2)nc2cc(Cl)ccc21 (single isomer, unassigned) [Example 162, N-[(5-chloro-1-ethyl-1H-1,3-benzodiazol-2-yl)(oxolan-3-yl)methyl]-5-methylpyrazine-2-carboxamide]	30
CCn1c(C(NC(=O)c2cnc(C)cn2)C2CCOC2)nc2ccc(Cl)cc21 (single isomer, unassigned) [Example 164, N-[(6-chloro-1-ethyl-1H-1,3-benzodiazol-2-yl)(oxolan-3-yl)methyl]-5-methylpyrazine-2-carboxamide]	35
COCCn1c([C@@H](NC(=O)c2cnc(C)cn2)[C@@H](C)OC)nc2cc(OC(F)(F)F)ccc21 [Example 2, N-[(1R,2R)-2-methoxy-1-[1-(2-methoxyethyl)-5-(trifluoromethoxy)-1H-1,3-benzodiazol-2-yl]propyl]-5-methylpyrazine-2-carboxamide]	2
O=C(N[C@H](c1nc2cc(F)ccc2n1CC(F)F)C1CC1)c1cnc(C(F)F)cn1 [Example 4, N-[(S)-cyclopropyl[1-(2,2-difluoroethyl)-5-fluoro-1H-1,3-benzodiazol-2-yl]methyl]-5-(difluoromethyl)pyrazine-2-carboxamide]	4
COCCn1c([C@@H](NC(=O)c2cnc(C(F)F)cn2)C2CC2)nc2cc(F)ccc21 [Example 5, N-[(S)-cyclopropyl[5-fluoro-1-(2-methoxyethyl)-1H-1,3-benzodiazol-2-yl]methyl]-5-(difluoromethyl)pyrazine-2-carboxamide]	5
COCCn1c([C@@H](NC(=O)c2cnc(C)cn2)C2CC2)nc2cc(F)ccc21 [Example 6, N-[(S)-cyclopropyl[5-fluoro-1-(2-methoxyethyl)-1H-1,3-benzodiazol-2-yl]methyl]-5-methylpyrazine-2-carboxamide]	7
Cc1cnc(C(=O)N[C@H](c2nc3cc(F)ccc3n2C(C)C)C2CC2)cn1 [Example 7, N-[(S)-cyclopropyl[5-fluoro-1-(propan-2-yl)-1H-1,3-benzodiazol-2-yl]methyl]-5-methylpyrazine-2-carboxamide]	4
Cc1cnc(C(=O)N[C@H](c2nc3cc(F)ccc3n2CC(F)F)C2CC2)cn1 [Example 10, N-[(S)-cyclopropyl[1-(2,2-difluoroethyl)-5-fluoro-1H-1,3-benzodiazol-2-yl]methyl]-5-methylpyrazine-2-carboxamide]	5
COCCn1c([C@@H](NC(=O)c2cnc(C)cn2)C2CC2)nc2cc(OC(F)(F)F)ccc21 [Example 12, N-[(S)-cyclopropyl[1-(2-methoxyethyl)-5-(trifluoromethoxy)-1H-1,3-benzodiazol-2-yl]methyl]-5-methylpyrazine-2-carboxamide]	2
COCCn1c([C@@H](NC(=O)c2cnc(C)cn2)C2CC2)nc2cc(OC(F)F)ccc21 [Example 13, N-[(S)-cyclopropyl[5-(difluoromethoxy)-1-(2-methoxyethyl)-1H-1,3-benzodiazol-2-yl]methyl]-5-methylpyrazine-2-carboxamide]	7
Cc1cnc(C(=O)N[C@H](c2nc3cc(C)c(F)cc3n2CC(F)F)C2CC2)cn1 [Example 15, N-[(S)-cyclopropyl[1-(2,2-difluoroethyl)-6-fluoro-5-methyl-1H-1,3-benzodiazol-2-yl]methyl]-5-methylpyrazine-2-carboxamide]	3
COCCn1c([C@@H](NC(=O)c2cnc(C)cn2)C2CC2)nc2cc(F)c(F)cc21 [Example 16, N-[(S)-cyclopropyl[5,6-difluoro-1-(2-methoxyethyl)-1H-1,3-benzodiazol-2-yl]methyl]-5-methylpyrazine-2-carboxamide]	5
CCn1c([C@@H](NC(=O)c2cnc(C)cn2)C(C)C)nc2cc(F)ccc21 [Example 17, N-[(1S)-1-(1-ethyl-5-fluoro-1H-1,3-benzodiazol-2-yl)-2-methylpropyl]-5-methylpyrazine-2-carboxamide]	4
COCCn1c([C@@H](NC(=O)c2cnc(C)cn2)C2CC2)nc2c(C)c(C#N)ccc21 [Example 18, N-[(S)-[5-cyano-1-(2-methoxyethyl)-4-methyl-1H-1,3-benzodiazol-2-yl](cyclopropyl)methyl]-5-methylpyrazine-2-carboxamide]	7
COCCn1c([C@@H](NC(=O)c2cnc(C(F)F)cn2)[C@@H]2CCOC2)nc2cc(OC(F)(F)F)ccc21 [Example 23, 5-(difluoromethyl)-N-[(S)-[1-(2-methoxyethyl)-5-(trifluoromethoxy)-1H-1,3-benzodiazol-2-yl][(3S)-oxolan-3-yl]methyl]pyrazine-2-carboxamide]	4
COCCn1c([C@H](CC2CC2)NC(=O)c2cnc(C)cn2)nc2cc(F)ccc21 [Example 24, N-[(1S)-2-cyclopropyl-1-[5-fluoro-1-(2-methoxyethyl)-1H-1,3-benzodiazol-2-yl]ethyl]-5-methylpyrazine-2-carboxamide]	7
CCn1c([C@@H](NC(=O)c2cnc(C)cn2)C2CC2)nc2cc(Cl)ccc21 [Example 25, N-[(S)-(5-chloro-1-ethyl-1H-1,3-benzodiazol-2-yl)(cyclopropyl)methyl]-5-methylpyrazine-2-carboxamide]	3
CO[C@H](C)[C@H](NC(=O)c1cnc(C)cn1)c1nc2cc(Br)c(F)cc2n1C [Example 26, N-[(1R,2R)-1-(5-bromo-6-fluoro-1-methyl-1H-1,3-benzodiazol-2-yl)-2-methoxypropyl]-5-methylpyrazine-2-carboxamide]	7

Second part, the compound after the results:

IC50 [nM]	SMILES
27	CCn1c(C(NC(=O)c2cnc(C)cn2)C2CCOC2)nc2ccc(Cl)cc21 (single isomer, unassigned) [Example 163, N-[(6-chloro-1-ethyl-1H-1,3-benzodiazol-2-yl)(oxolan-3-yl)methyl]-5-methylpyrazine-2-carboxamide]
4	CCn1c([C@@H](NC(=O)c2cnc(C)cn2)C2CC2)nc2cc(F)ccc21 [Example 1, N-[(S)-cyclopropyl(1-ethyl-5-fluoro-1H-1,3-benzodiazol-2-yl)methyl]-5-methylpyrazine-2-carboxamide]
3	CCn1c([C@@H](NC(=O)c2cnc(C(F)F)cn2)C2CC2)nc2cc(F)ccc21 [Example 3, N-[(S)-cyclopropyl(1-ethyl-5-fluoro-1H-1,3-benzodiazol-2-yl)methyl]-5-(difluoromethyl)pyrazine-2-carboxamide]
3	COCCn1c([C@@H](NC(=O)c2cnc(C)cn2)C2CC2)nc2cc(Cl)ccc21 [Example 8, N-[(S)-[5-chloro-1-(2-methoxyethyl)-1H-1,3-benzodiazol-2-yl](cyclopropyl)methyl]-5-methylpyrazine-2-carboxamide]
4	Cc1cnc(C(=O)N[C@H](c2nc3c(F)c(C)ccc3n2CC(F)F)C2CC2)cn1 [Example 9, N-[(S)-cyclopropyl[1-(2,2-difluoroethyl)-4-fluoro-5-methyl-1H-1,3-benzodiazol-2-yl]methyl]-5-methylpyrazine-2-carboxamide]
3	COCCn1c([C@@H](NC(=O)c2cnc(C(F)F)cn2)C2CC2)nc2cc(Cl)ccc21 [Example 11, N-[(S)-[5-chloro-1-(2-methoxyethyl)-1H-1,3-benzodiazol-2-yl](cyclopropyl)methyl]-5-(difluoromethyl)pyrazine-2-carboxamide]
62	COCCn1c(C(NC(=O)c2cnc(C)cn2)C2CCCO2)nc2cc(C(F)(F)F)ccc21 (stereo not drawn) [Example 19-2, N-{[1-(2-methoxyethyl)-5-(trifluoromethyl)-1H-1,3-benzodiazol-2-yl](oxolan-2-yl)methyl}-5-methylpyrazine-2-carboxamide]
3	COCCn1c([C@@H](NC(=O)c2cnc(C)cn2)C2CC2)nc2cc(Cl)c(F)cc21 [Example 21]
6	CO[C@H](C)[C@H](NC(=O)c1cnc(C)cn1)c1nc2cc(C(F)(F)F)ccc2n1C [Example 22, N-[(1R,2R)-2-methoxy-1-[1-methyl-5-(trifluoromethyl)-1H-1,3-benzodiazol-2-yl]propyl]-5-methylpyrazine-2-carboxamide]
